Assay results reported in paper PMC8230565, “Bisavenathramide Analogues as Nrf2 Inductors and Neuroprotectors in In Vitro Models of Oxidative Stress and Hyperphosphorylation” (Antioxidants, 2021).

System: SH-SY5Y cells
Test: Total ROS production (H2DCFDA) in SH-SY5Y cells under R/O
Format: cell-based
Conditions: 0.1, 1 and 10 µM; R/O 6 h
Procedure: ROS production was evaluated using the fluorescent dye H2DCFDA [20]. Briefly, after deacetylation inside the cell, the H2DCF derivative is able to react with oxygen-free radicals and is transformed into dichlorofluorescein, increasing its fluorescence intensity. SH-SH5Y cells were seeded in 96-well clear-bottom black plates 6 × 10^4 cells/well. After 24 h, cells were treated with compound 3i at the desired concentrations for 24 h. Treatments were then eliminated and the cells were loaded with H2DCFDA (10 μM) for 45 min. […] Fluorescence was evaluated in a fluorescence microplate reader (Fluostar optima; BMG Labtech, Ortenberg, Baden-Württemberg, Germany) at 485/520 excitation/emission wavelengths, respectively. […]
To further evaluate its mechanism of action, and considering the importance of exacerbated oxidative stress in neurodegenerative diseases, we evaluated its capacity to reduce free radical species production using the above-mentioned R/O toxic combination to generate ROS and measure the influence of 3i in the total ROS production by using the H2DCFDA dye, and also the specific superoxide production by using the selective dye dihydroetidium (DHE). […]

In the case of `COC(=O)C1=C(C)N(CCc2ccccc2)C(=O)/C1=C\c1ccc(O)c(O)c1` [Compound 3i, Methyl (Z)-4-(3,4-Dihydroxybenzylidene)-2-methyl-5-oxo-1-phenethyl-4,5-dihydro-1H-pyrrole-3-carboxylate], the “total ROS production (H2DCFDA)” value is reported as “reduce ROS production almost to basal levels at all concentrations tested”.
